Reference: US20060035925A1, “SUBSTITUTED 4H-CHROMENES AND ANALOGS AS ACTIVATORS OF CASPASES AND INDUCERS OF APOPTOSIS AND THE USE THEREOF” (Cytovia, Inc., priority 1999, published 2006)
Read-outs that look alike come from different tables or passages of the source.

Key:
[1] = test system: Human breast cancer cell line T-47D; assay: Caspase cascade activation assay (N-(Ac-DEVD)-N'-ethoxycarbonyl-R110 fluorogenic substrate) in T-47D cells; assay type: cell-based; details: for Caspase activity (Ratio) T-47D: 24 h incubation with compound, ratio of net RFU (T=3 h) of test compound to control
Protocol: (§1) Human breast cancer cell lines T-47D and ZR-75-1 were grown according to media component mixtures designated by American Type Culture Collection +10% FCS (Invitrogen Corporation), in a 5% CO2-95% humidity incubator at 37° C. T-47D and ZR-75-1 cells were maintained at a cell density between 30 and 80% confluency at a cell density of 0.1 to 0.6×10^6 cells/ml. Cells were harvested at 600×g and resuspended at 0.65×10^6 cells/mL into appropriate media +10% FCS. An aliquot of 45 μl of cells was added to a well of a 96-well microtiter plate containing 5 μl of a 10% DMSO in RPMI-1640 media solution containing 0.16 to 10 μM of 2-amino-3-cyano-4-(3-bromo-4,5-dimethoxyphenyl)-4H-indolo[7,6-b]pyran (Example 42) or other test compound (0.016 to 1 μM final). An aliquot of 45 μl of cells was added to a well of a 96-well microtiter plate containing 5 μl of a 10% DMSO in RPMI-1640 media solution without test compound as the control sample. The samples were mixed by agitation and then incubated at 37° C. for 24 h in a 5% CO2-95% humidity incubator. After incubation, the samples were removed from the incubator and 50 μl of a solution containing 20 μM of N-(Ac-DEVD)-N′-ethoxycarbonyl-R110 (SEQ ID NO:1) fluorogenic substrate (Cytovia, Inc.; WO99/18856), 20% sucrose (Sigma), 20 mM DTT (Sigma), 200 mM NaCl (Sigma), 40 mM Na PIPES buffer pH 7.2 (Sigma), and 500 μg/ml lysolecithin (Calbiochem) was added. The samples were mixed by agitation and incubated at room temperature. Using a fluorescent plate reader (Model 1420 Wallac Instruments), an initial reading (T=0) was made approximately 1-2 min after addition of the substrate solution, employing excitation at 485 nm and emission at 530 nm, to determine the background fluorescence of the control sample. After the 3 h incubation, the samples were read for fluorescence as above (T=3 h).
(§2) The Relative Fluorescence Unit values (RFU) were used to calculate the sample readings as follows: RFU(T=3h)−Control RFU(T=0)=Net RFU(T=3h)
(§3) The activity of caspase cascade activation was determined by the ratio of the net RFU value for 2-amino-3-cyano-4-(3-bromo-4,5-dimethoxyphenyl)-4H-indolo[7,6-b]pyran or other test compound to that of control samples. The EC50 (nM) was determined by a sigmoidal dose-response calculation (Prism 2.0, GraphPad Software Inc.).

[2] = test system: Human breast cancer cell line ZR-75-1; assay: Caspase cascade activation assay (N-(Ac-DEVD)-N'-ethoxycarbonyl-R110 fluorogenic substrate) in ZR-75-1 cells; assay type: cell-based; details: for Caspase activity (Ratio) ZR-75-1: 24 h incubation with compound, ratio of net RFU (T=3 h) of test compound to control
Protocol: as §1, §2, §3

[3] = 24 h incubation, sigmoidal dose-response, read-out: Caspase potency EC50 (nM) T-47D
[4] = ZR-75-1 cells, 24 h incubation, sigmoidal dose-response, read-out: Caspase potency EC50 (nM) ZR-75-1
[5] = Homo sapiens, T47D, 24 h, 24 h incubation, sigmoidal dose-response, read-out: Caspase potency EC50 (nM) T-47D
[6] = Homo sapiens, ZR-75-1, 24 h, ZR-75-1 cells, 24 h incubation, sigmoidal dose-response, read-out: Caspase potency EC50 (nM) ZR-75-1

Row | Compound | Caspase activity (Ratio) T-47D [1] | EC50 [1, 3] [nM] | Caspase activity (Ratio) ZR-75-1 ([2]; ZR-75-1 cells) | EC50 [2, 4] [nM] | EC50 [1, 5] [nM] | EC50 [2, 6] [nM] | EC50 ([1]; Homo sapiens, T47D, additional compounds, Table II, read-out: Caspase potency EC50 (nM) T-47D, Table II) [nM] | Caspase activity (Ratio) T-47D, Table II ([1]; additional compounds, Table II) | EC50 ([2]; Homo sapiens, ZR-75-1, ZR-75-1 cells, additional compounds, Table II, read-out: Caspase potency EC50 (nM) ZR-75-1, Table II) [nM] | Caspase activity (Ratio) ZR-75-1, Table II ([2]; ZR-75-1 cells, additional compounds, Table II)
1 | COc1cc(C2C(C#N)=C(N)Oc3cc(N4CCOCC4)ccc32)cc(Br)c1OC (centres unmarked) [Example 66C, 2-Amino-3-cyano-7-N-morpholine-4-(3-bromo-4,5-dimethoxyphenyl)-4H-chromene] | 10.4 | 166 | 7.4 | 86.8 |  |  |  |  |  | 
2 | N#CC1=C(N)Oc2ccccc2C1c1ccccc1 (centres unmarked) [Example 29, 2-Amino-3-cyano-4-phenyl-4-H-chromene] | <2 | > 10000 | <2 | > 10000 |  |  |  |  |  | 
3 | COc1cncc(C2C(C#N)=C(N)Oc3cc(N)ccc32)c1 (centres unmarked) [Example 39, 2,7-Diamino-3-cyano-4-(5-methoxy-3-pyridyl)-4H-chromene] | 8.4 |  | 14 |  | 283 | 177 |  |  |  | 
4 | N#CC1=C(N)Oc2cc(N)ccc2C1c1cccnc1 (centres unmarked) [Example 24, 2,7-Diamino-3-cyano-4-(3-pyridyl)-4H-chromene] | <2 |  | <2 |  | > 10000 | > 10000 |  |  |  | 
5 | COc1cncc(C2C(C#N)=C(N)Oc3cc(OC)ccc32)c1 (centres unmarked) [Example 40, 2-Amino-3-cyano-7-methoxy-4-(5-methoxy-pyridin-3-yl)-4H-chromene] | 7.9 |  | 8.9 |  | 27.4 | 16.9 |  |  |  | 
6 | N#CC1=C(N)OC2C(=CC=C3C=CN=C32)C1c1cncc(C#N)c1 (centres unmarked) [Example 60, 2-Amino-3-cyano-4-(5-cyano-pyridin-3-yl)-4H-indolo[7,6-b]pyran] | 6.7 |  | 5.5 |  | 388 | 57 |  |  |  | 
7 | COc1ccc2c(c1)OC(N)=C(C#N)C2c1cccc(Br)c1 (centres unmarked) [Example 6, 2-Amino-3-cyano-7-methoxy-4-(3-bromophenyl)-4H-chromene] | 6.8 |  | 12.8 |  | 54 | 30 |  |  |  | 
8 | N#CC1=C(N)OC2C3=CC=NC3=CC=C2C1c1cncc(Br)c1 (centres unmarked) [Example 36, 2-Amino-3-cyano-4-(5-bromo-3-pyridyl)-4H-indolo[4,5-b]pyran] | 5.9 |  | 2.9 |  | 10 | 3 |  |  |  | 
9 | COc1cc(C2C(C#N)=C(N)Oc3cc(Cl)ccc32)cc(Br)c1OC (centres unmarked) [Example 63, 2-Amino-4-(3-bromo-4,5-dimethoxy-phenyl)-7-chloro-3-cyano-4H-chromene] | 9.1 |  | 10.1 |  | 147 | 114 |  |  |  | 
10 | COc1ccc2c(c1)OC(N)=C(C#N)C2c1cccc(Cl)c1 (centres unmarked) [Example 10, 2-Amino-3-cyano-7-methoxy-4-(3-chlorophenyl)-4H-chromene] | 6.1 |  | 9.0 |  | 48 | 36 |  |  |  | 
11 | COc1cc(OC)cc(C2C(C#N)=C(N)Oc3cc(OC)ccc32)c1 (centres unmarked) [Example 12, 2-Amino-3-cyano-7-methoxy-4-(3,5-dimethoxyphenyl)-4H-chromene] | 6.1 |  | 6.7 |  | 14 | 9 |  |  |  | 
12 | N#CC1=C(N)Oc2cc(N)ccc2C1c1cccc([N+](=O)[O-])c1 (centres unmarked) [Example 25, 2,7-Diamino-3-cyano-4-(3-nitrophenyl)-4H-chromene] | 6.1 |  | 9.7 |  | 463 | 325 |  |  |  | 
13 | C1CCNCC1.C1CCNCC1.COc1cc(C2C(C#N)=C(N)Oc3c2ccc2[nH]ccc32)cc(Br)c1OP(=O)(O)O (centres unmarked) [Example 69, 2-Amino-3-cyano-4-(3-bromo-4-phosphoric acid-dipiperidine salt-5-methoxyphenyl)-4H-indolo[4,5-b]pyran] | 3.5 | 582 | 5.6 | 284 |  |  |  |  |  | 
14 | COc1cc(C2C3=CC=C4N=CC=C4C3OC(N)=C2C#N)cc(Br)c1O (centres unmarked) [Example 50, 2-Amino-4-(3-bromo-4-hydroxy-5-methoxyphenyl)-3-cyano-4H-indolo[4,5-b]pyran] | 10.1 |  | 10.6 |  | 16.5 | 14.8 |  |  |  | 
15 | Cc1cncc(C2C3=CC=C4N=CC=C4C3OC(N)=C2C#N)c1 (centres unmarked) [Example 35, 2-Amino-3-cyano-4-(5-methyl-3-pyridyl)-4H-indolo[4,5-b]pyran] | 6.9 |  | 5.5 |  | 3 | 8 |  |  |  | 
16 | N#CC1=C(N)Oc2cc(N)ccc2C1c1cncc(Br)c1 (centres unmarked) [Example 37, 2,7-Diamino-3-cyano-4-(5-bromo-3-pyridyl)-4H-chromene] | 6.4 |  | 3.4 |  | 57 | 31 |  |  |  | 
17 | COc1cccc(C2C3=CC=C4N=CC=C4C3OC(N)=C2C#N)c1 (centres unmarked) [Example 46, 2-Amino-3-cyano-4-(3-methoxyphenyl)-4H-indolo[4,5-b]pyran] | 6.4 | 61.8 | 7.1 | 26.3 | 62 | 26 |  |  |  | 
18 | N#CC1=C(N)Oc2cc(N)ccc2C1c1ccccc1 (centres unmarked) [2,7-Diamino-3-cyano-4-phenyl-4H-chromene] |  |  |  |  |  |  | 5630 | 6.3 | 2880 | 8.6
19 | N#CC1=C(N)Oc2c(ccc3cc[nH]c23)C1c1cccc(C(F)(F)F)c1 (centres unmarked) [Example 54, 2-Amino-3-cyano-4-(3-trifluromethyl-phenyl)-4H-indolo[7,6-b]pyran] | 7.3 | 314 | 7.5 | 216 |  |  |  |  |  | 
20 | COc1cc(C2C3=CC=C4C=CN=C4C3OC(N)=C2C#N)cc(Br)c1O (centres unmarked) [Example 51, 2-Amino-4-(3-bromo-4-hydroxy-5-methoxyphenyl)-3-cyano-4H-indolo[7,6-b]pyran] | 11.5 |  | 6.7 |  | 36.8 | 18.6 |  |  |  | 
21 | CCNc1ccc2c(c1)OC(N)=C(C#N)C2c1cc(Br)c(OC)c(OC)c1 (centres unmarked) [Example 2A, 2-Amino-3-cyano-7-ethylamino-4-(3-bromo-4,5-dimethoxyphenyl)-4H-chromene] | 4.0 |  | 4.1 |  | 72 | 14 |  |  |  | 
